Measurements: US10597388B2, “Pyridazinone herbicides” (FMC CORPORATION, priority 2014, dated 2020)

Assays:
Experiment in all cases: Test D controlled growth environment herbicide test, pre- and postemergence
Format in all cases: in vivo
[1] = test system: barley, winter (winter barley, Hordeum vulgare)
Procedure, shortened: (§1)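 Pre-emergence: seeds sown in silt loam soil were sprayed with compound in a non-phytotoxic solvent mix containing surfactant. Post-emergence: plants at 2 to 18 cm (1- to 4-leaf stage) in peat moss/vermiculite medium got the same formulation. Visual 0–100 rating versus controls after 14 to 21 d.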

[2] = test system: foxtail, green (green foxtail, Setaria viridis)
Procedure, shortened: as §1

[3] = test system: bluegrass (annual bluegrass, Poa annua)
Procedure, shortened: as §1

[4] = test system: buckwheat, wild (wild buckwheat, Polygonum convolvulus)
Procedure, shortened: as §1

[5] = test system: bromegrass, downy (downy bromegrass, Bromus tectorum)
Procedure, shortened: as §1

[6] = test system: galium (catchweed bedstraw, Galium aparine)
Procedure, shortened: as §1

[7] = test system: canarygrass (Phalaris minor)
Procedure, shortened: as §1

[8] = test system: ryegrass, Italian (Italian ryegrass, Lolium multiflorum)
Procedure, shortened: as §1

[9] = test system: blackgrass (Alopecurus myosuroides)
Procedure, shortened: as §1

[10] = test system: windgrass (Apera spica-venti)
Procedure, shortened: as §1

[11] = test system: wheat, spring (spring wheat, Triticum aestivum)
Procedure, shortened: as §1

[12] = test system: pigweed (Amaranthus retroflexus)
Procedure, shortened: as §1

[13] = test system: lambsquarters (Chenopodium album)
Procedure, shortened: as §1

[14] = Postemergence, 31 g ai/ha, scale 0 to 100 (0 no effect, 100 complete control)
[15] = Postemergence, 125 g ai/ha, visual rating on scale 0 (no effect) to 100 (complete control), 14 to 21 d
[16] = Postemergence, 250 g ai/ha, scale 0 to 100 (0 no effect, 100 complete control)
[17] = Preemergence, 62 g ai/ha, scale 0 to 100 (0 no effect, 100 complete control)
[18] = Preemergence, 125 g ai/ha, scale 0 to 100 (0 no effect, 100 complete control)
[19] = Preemergence, 250 g ai/ha, scale 0 to 100, 0 no effect, 100 complete control
[20] = postemergence, 62 g ai/ha, scale 0 to 100, 0 no effect, 100 complete control

## Cc1nn(C)c(=O)c(-c2ccc(Br)c3ccccc23)c1O [Compound 75]
[1]; [14]
  Barley, Winter plant response rating: 0
[1]; [15]
  Plant response rating, Barley, Winter: 0
[1]; [16]
  Plant response rating, Barley, Winter: 5
[1]; Preemergence, 31 g ai/ha
  Plant response rating (scale of 0 to 100), Barley, Winter: 0
[1]; [17]
  Plant response rating, Barley, Winter: 0
[1]; [18]
  Plant response rating, Barley, Winter: 0
[1]; [19]
  Plant response rating, Barley, Winter: 0
[1]; [20]
  Plant response rating, Barley, Winter: 0
[2]; [14]
  Foxtail, Green plant response rating: 0
[2]; [15]
  Plant response rating, Foxtail, Green: 55
[2]; [16]
  Plant response rating, Foxtail, Green: 60
[2]; Preemergence, 31 g ai/ha
  Plant response rating (scale of 0 to 100), Foxtail, Green: 15
[2]; [17]
  Plant response rating, Foxtail, Green: 35
[2]; [18]
  Plant response rating, Foxtail, Green: 55
[2]; [19]
  Plant response rating, Foxtail, Green: 100
[2]; [20]
  Plant response rating, Foxtail, Green: 25
[3]; [14]
  Bluegrass plant response rating: 10
[3]; [15]
  Plant response rating, Bluegrass: 15
[3]; [16]
  Plant response rating, Bluegrass: 15
[3]; Preemergence, 31 g ai/ha
  Plant response rating (scale of 0 to 100), Bluegrass: 15
[3]; [17]
  Plant response rating, Bluegrass: 15
[3]; [18]
  Plant response rating, Bluegrass: 10
[3]; [19]
  Plant response rating, Bluegrass: 35
[3]; [20]
  Plant response rating, Bluegrass: 10
[4]; [14]
  Buckwheat, Wild plant response rating: 100
[4]; [15]
  Plant response rating, Buckwheat, Wild: 100
[4]; [16]
  Plant response rating, Buckwheat, Wild: 100
[4]; Preemergence, 31 g ai/ha
  Plant response rating (scale of 0 to 100), Buckwheat, Wild: 0
[4]; [17]
  Plant response rating, Buckwheat, Wild: 0
[4]; [18]
  Plant response rating, Buckwheat, Wild: 0
[4]; [19]
  Plant response rating, Buckwheat, Wild: 50
[4]; [20]
  Plant response rating, Buckwheat, Wild: 100
[5]; [14]
  Bromegrass, Downy plant response rating: 0
[5]; [15]
  Plant response rating, Bromegrass, Downy: 15
[5]; [16]
  Plant response rating, Bromegrass, Downy: 30
[5]; Preemergence, 31 g ai/ha
  Plant response rating (scale of 0 to 100), Bromegrass, Downy: 0
[5]; [17]
  Plant response rating, Bromegrass, Downy: 0
[5]; [18]
  Plant response rating, Bromegrass, Downy: 10
[5]; [19]
  Plant response rating, Bromegrass, Downy: 25
[5]; [20]
  Plant response rating, Bromegrass, Downy: 0
[6]; [14]
  Galium plant response rating: 90
[6]; [15]
  Plant response rating, Galium: 95
[6]; [16]
  Plant response rating, Galium: 100
[6]; Preemergence, 31 g ai/ha
  Plant response rating (scale of 0 to 100), Galium: 15
[6]; [17]
  Plant response rating, Galium: 50
[6]; [18]
  Plant response rating, Galium: 60
[6]; [19]
  Plant response rating, Galium: 80
[6]; [20]
  Plant response rating, Galium: 95
[7]; [14]
  Canarygrass plant response rating: 15
[7]; [15]
  Plant response rating, Canarygrass: 30
[7]; [16]
  Plant response rating, Canarygrass: 50
[7]; Preemergence, 31 g ai/ha
  Plant response rating (scale of 0 to 100), Canarygrass: 20
[7]; [17]
  Plant response rating, Canarygrass: 55
[7]; [18]
  Plant response rating, Canarygrass: 70
[7]; [19]
  Plant response rating, Canarygrass: 75
[7]; [20]
  Plant response rating, Canarygrass: 15
[8]; [14]
  Ryegrass, Italian plant response rating: 90
[8]; [15]
  Plant response rating, Ryegrass, Italian: 95
[8]; [16]
  Plant response rating, Ryegrass, Italian: 98
[8]; Preemergence, 31 g ai/ha
  Plant response rating (scale of 0 to 100), Ryegrass, Italian: 95
[8]; [17]
  Plant response rating, Ryegrass, Italian: 100
[8]; [18]
  Plant response rating, Ryegrass, Italian: 100
[8]; [19]
  Plant response rating, Ryegrass, Italian: 0
[8]; [20]
  Plant response rating, Ryegrass, Italian: 95
[9]; [14]
  Blackgrass plant response rating: 15
[9]; [15]
  Plant response rating, Blackgrass: 65
[9]; [16]
  Plant response rating, Blackgrass: 70
[9]; Preemergence, 31 g ai/ha
  Plant response rating (scale of 0 to 100), Blackgrass: 15
[9]; [17]
  Plant response rating, Blackgrass: 30
[9]; [18]
  Plant response rating, Blackgrass: 40
[9]; [19]
  Plant response rating, Blackgrass: 55
[9]; [20]
  Plant response rating, Blackgrass: 20
[10]; [14]
  Windgrass plant response rating: 10
[10]; [15]
  Plant response rating, Windgrass: 40
[10]; [16]
  Plant response rating, Windgrass: 65
[10]; Preemergence, 31 g ai/ha
  Plant response rating (scale of 0 to 100), Windgrass: 0
[10]; [17]
  Plant response rating, Windgrass: 15
[10]; [18]
  Plant response rating, Windgrass: 50
[10]; [19]
  Plant response rating, Windgrass: 85
[10]; [20]
  Plant response rating, Windgrass: 15
[11]; [14]
  Wheat, Spring plant response rating: 0
[11]; [15]
  Plant response rating, Wheat, Spring: 5
[11]; [16]
  Plant response rating, Wheat, Spring: 15
[11]; Preemergence, 31 g ai/ha
  Plant response rating (scale of 0 to 100), Wheat, Spring: 0
[11]; [17]
  Plant response rating, Wheat, Spring: 25
[11]; [18]
  Plant response rating, Wheat, Spring: 35
[11]; [19]
  Plant response rating, Wheat, Spring: 45
[11]; [20]
  Plant response rating, Wheat, Spring: 0
[12]; [14]
  Pigweed plant response rating: 100
[12]; [15]
  Plant response rating, Pigweed: 100
[12]; [16]
  Plant response rating, Pigweed: 100
[12]; Preemergence, 31 g ai/ha
  Plant response rating (scale of 0 to 100), Pigweed: 85
[12]; [17]
  Plant response rating, Pigweed: 100
[12]; [18]
  Plant response rating, Pigweed: 100
[12]; [19]
  Plant response rating, Pigweed: 100
[12]; [20]
  Plant response rating, Pigweed: 100
[13]; [14]
  Lambsquarters plant response rating: 100
[13]; [15]
  Plant response rating, Lambsquarters: 100
[13]; [16]
  Plant response rating, Lambsquarters: 100
[13]; Preemergence, 31 g ai/ha
  Plant response rating (scale of 0 to 100), Lambsquarters: 95
[13]; [17]
  Plant response rating, Lambsquarters: 95
[13]; [18]
  Plant response rating, Lambsquarters: 100
[13]; [19]
  Plant response rating, Lambsquarters: 100
[13]; [20]
  Plant response rating, Lambsquarters: 100
